Data published in ChEMBL document CHEMBL1177837, “5-Isopropylidene-3-ethyl rhodanine induce growth inhibition followed by apoptosis in leukemia cells” (Eur J Med Chem, 2010).
Activity calls are given as the source filed them.

Legend:
Format in all cases: functional, cell-based
[1] = tested on: CCRF-CEM; assay: Cytotoxicity against human CEM cells at 50 uM after 48 hrs by trypan blue exclusion assay
[2] = tested on: CCRF-CEM; assay: Cytotoxicity against human CEM cells at 100 uM after 48 hrs by trypan blue exclusion assay
[3] = tested on: CCRF-CEM; assay: Cytotoxicity against human CEM cells at 250 uM after 48 hrs by trypan blue exclusion assay
[4] = tested on: CCRF-CEM; assay: Cytotoxicity against human CEM cells assessed as LDH release after at 10 to 250 uM; conditions: TDE = time-dependent effect
[5] = tested on: CCRF-CEM; assay: Cell cycle arrest in human CEM cells assessed as accumulation at G1 phase after 72 hrs by FACS
[6] = tested on: CCRF-CEM; assay: Cell cycle arrest in human CEM cells assessed as accumulation at G2 phase after 72 hrs by FACS
[7] = tested on: CCRF-CEM; assay: Cell cycle arrest in human CEM cells assessed as accumulation at S phase after 72 hrs by FACS
[8] = tested on: CCRF-CEM; assay: Cell cycle arrest in human CEM cells assessed as accumulation at G2/M phase after 72 hrs by FACS
[9] = tested on: CCRF-CEM; assay: Cell cycle arrest in human CEM cells assessed as accumulation at sub G1 phase after 72 hrs by FACS

Measured: Activity

CCN1C(=O)C(=C(C)C)SC1=S
active: [1] | [2] | [3] | [4] tde | [5] Dose-dependent effect | [6] Dose-dependent effect | [7] Dose-dependent effect | [8] Dose-dependent effect | [9] Dose-dependent effect
